Positions count from the first letter of the chain named. Square brackets hold non-standard residues; d marks the D form. Ends that are not written are not given here. pY = N[C@@H](Cc1ccc(OP(=O)(O)O)cc1)C(=O)O

The target of assay [1] is T1, Shc (PTB domain, Shc^PTB R175Q) (Homo sapiens, UniProt P29353, R285Q).
T1 sequence (P29353 156-339 R285Q limits assumed): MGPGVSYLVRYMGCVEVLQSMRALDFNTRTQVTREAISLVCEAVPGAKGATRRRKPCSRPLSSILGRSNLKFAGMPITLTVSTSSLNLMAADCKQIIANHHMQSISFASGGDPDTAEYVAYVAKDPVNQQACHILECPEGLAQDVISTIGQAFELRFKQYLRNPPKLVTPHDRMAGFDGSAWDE
Put plainly: MST with Atto488-labelled Shc^PTB R175Q. In kind it is binding.

Assay [2] has as its target T2, Shc (PTB domain, Shc^PTB) (Homo sapiens, UniProt P29353).
T2 sequence (P29353 156-339 limits assumed): T1 sequence (P29353 156-339 R285Q limits assumed) with Q130R
In words: ITC. In kind it is binding.

The target of assay [3] is T3, Shc phosphotyrosine binding (PTB) domain (UniProt P29353-2 17-207, Atto488 label, 1:1 protein:dye (in the MST only)).
T3 sequence: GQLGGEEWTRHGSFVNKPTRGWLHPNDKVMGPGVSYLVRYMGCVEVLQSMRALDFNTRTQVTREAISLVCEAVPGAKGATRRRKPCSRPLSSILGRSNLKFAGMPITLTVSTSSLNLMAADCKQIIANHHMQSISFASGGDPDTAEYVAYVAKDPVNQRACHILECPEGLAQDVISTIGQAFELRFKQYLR
In words: MST.

In general, Kd refers to the equilibrium constant for the complex coming apart. Read a high Kd as weaker binding. In the case of `COc1ccc2c(c1)c(CC(=O)O)c(C)n2C(=O)c1ccc(Cl)cc1` [indomethacin], the results for the dissociation constant (Kd) in assay [1] and in assay [2] were 590 ± 54 µM and 38.2 ± 7.2 µM, respectively.

B1: ErbB2 pY1122 peptide (peptide)
peptide: SPAFDNLY[pY]WDQ
B1 returned a Kd in assay [3] of 0.261 µM.

These data come from article PMC6584941 (Cancer Letters, 2019).
